The values below come from patent US6140368A, “Naphthols useful in antiviral methods” (The Regents of the University of California, priority 1998, dated 2000).

Assay [1] has as its target HIV reverse transcriptase (Human immunodeficiency virus type 1 group M subtype B, UniProt P03366). Put plainly: Reverse transcriptase scintillation proximity assay (Example 4, Table 2). Format: biochemical. The settings on record: for IC50: read-out: IC50 (RT activity); for remaining activity at 10 µM: 0.05 h, read-out: % RT activity remaining at 10 μM. An outline of the steps: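 Purified RT with biotinylated 17mer/50mer RNA-DNA template-primer (39 nm), pH 8.0 Tris with 10 mM MgCl2, 60 mM KCl, dNTPs plus tritiated dTTP; inhibitor preincubated 10 min at 37 °C before enzyme, reaction 3 min. Incorporation read by streptavidin SPA counting.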

Assay [2] addresses T1, HIV integrase (Human immunodeficiency virus type 1 group M subtype B, UniProt P04585). Put plainly: biochemical.
The target in assay [3] is T1, HIV integrase. Put plainly: biochemical. The source holds these as a separate data set.
The subject of assay [4] is HIV. The experiment in a line: Cell-based anti-HIV (XTT) assay (National Institutes of Health). The settings on record: run by the National Institutes of Health. From the text:
The anti-viral evaluations branch of the National Institutes of Health also ran cell-based anti-HIV (XTT) assays and reverse transcriptase (RT) assays on a number of the novel compounds. […] These were: 31, 32, 35, 36, 53, 54, 57, 58, 91, 99, and 103.

Where [5] appears, read: read-out: Inhibition of 3' processing activity (IC50).
Setting [6] is: read-out: Inhibition of strand transfer (IC50).
Setting [7] is: 10 μM inhibitor, relative to dimethyl sulfoxide = 100%.
Setting [8] is: Inhibition of 3' processing activity (IC50).
The mark [9] stands for this setting: Inhibition of strand transfer (IC50).

Where two headings read alike, the source gives them in different places. Where only a bound is given, the exact number is not on record here.

With `O=C(Nc1ccc2c(O)c(N=Nc3ccccc3)c(S(=O)(=O)O)cc2c1)Nc1ccc2c(O)c(N=Nc3ccccc3)c(S(=O)(=O)O)cc2c1` [Compound 4, calcomine orange, reference compound], the IC50 in assay [1] was found to be 1.5 µM; in assay [2] (setting [5]), 2 µM; in assay [3] (setting [6]), 2 µM.

Take `O=C(O)CC(C(=O)O)c1ccc(N=Nc2c(S(=O)(=O)O)cc3cc(NC(=O)Nc4ccc5c(O)c(N=Nc6ccc(C(CC(=O)O)C(=O)O)cc6)c(S(=O)(=O)O)cc5c4)ccc3c2O)cc1` (centres unmarked) [Compound 33]: the IC50 was found to be 0.5 µM in assay [1], 0.3 µM in assay [2] (setting [5]) and 0.6 µM in assay [3] (setting [6]).

In the case of `O=C(Nc1ccc2c(O)c(N=Nc3cnc4ccccc4c3)c(S(=O)(=O)O)cc2c1)Nc1ccc2c(O)c(N=Nc3cnc4ccccc4c3)c(S(=O)(=O)O)cc2c1` [Compound 37], the remaining activity at 10 µM in assay [1] (setting [7]) amounted to 16%. In addition, the IC50 in assay [2] (setting [5]) and in assay [3] (setting [6]) was > 3 µM each time.

Turning to `COc1cc(N=Nc2c(S(=O)(=O)O)cc3cc(NC(=O)Nc4ccc5c(O)c(N=Nc6cc(OC)cc(OC)c6)c(S(=O)(=O)O)cc5c4)ccc3c2O)cc(OC)c1` [Compound 38], in assay [1] (setting [7]), the remaining activity at 10 µM was 47%. The IC50 in assay [2] (setting [5]) and in assay [3] (setting [6]) was > 3 µM in each case.

For the compound `COc1ccc(N=Nc2c(S(=O)(=O)O)cc3cc(NC(=O)Nc4ccc5c(O)c(N=Nc6ccc(OC)c(OC)c6)c(S(=O)(=O)O)cc5c4)ccc3c2O)cc1OC` [Compound 39], the remaining activity at 10 µM in assay [1] (setting [7]) came out at 12%. The IC50 was 2 µM in assay [2] (setting [5]) and 3 µM in assay [3] (setting [6]).

Take `COc1ccc(N=Nc2c(S(=O)(=O)O)cc3cc(NC(=O)Nc4ccc5c(O)c(N=Nc6ccc(OC)nc6OC)c(S(=O)(=O)O)cc5c4)ccc3c2O)c(OC)n1` [Compound 40]: the remaining activity at 10 µM in assay [1] (setting [7]) was 31%. Moreover, the IC50 in assay [2] (setting [5]) and in assay [3] (setting [6]) was > 3 µM in each case.

For the compound `O=C(Nc1ccc2c(O)c(N=Nc3ccc(Br)cc3Br)c(S(=O)(=O)O)cc2c1)Nc1ccc2c(O)c(N=Nc3ccc(Br)cc3Br)c(S(=O)(=O)O)cc2c1` [Compound 41], the remaining activity at 10 µM in assay [1] (setting [7]) worked out at 66%. The IC50 in assay [2] (setting [5]) and in assay [3] (setting [6]) was > 20 µM in each case.

Take `CCOC(=O)c1ccccc1N=Nc1c(S(=O)(=O)O)cc2cc(NC(=O)Nc3ccc4c(O)c(N=Nc5ccccc5C(=O)OCC)c(S(=O)(=O)O)cc4c3)ccc2c1O` [Compound 42]: the remaining activity at 10 µM in assay [1] (setting [7]) was 47%. The IC50 in assay [2] (setting [5]) and in assay [3] (setting [6]) was > 3 µM each time.

For the compound `CCOC(=O)c1cccc(N=Nc2c(S(=O)(=O)O)cc3cc(NC(=O)Nc4ccc5c(O)c(N=Nc6cccc(C(=O)OCC)c6)c(S(=O)(=O)O)cc5c4)ccc3c2O)c1` [Compound 43], in assay [1] (setting [7]), the remaining activity at 10 µM is 52%. Further, the 50% inhibitory concentration (IC50) in assay [2] (setting [5]) and in assay [3] (setting [6]) was > 20 µM each time.

For `O=C(Nc1ccc2c(O)c(N=Nc3cccc([N+](=O)[O-])c3)c(S(=O)(=O)O)cc2c1)Nc1ccc2c(O)c(N=Nc3cccc([N+](=O)[O-])c3)c(S(=O)(=O)O)cc2c1` [Compound 45], the remaining activity at 10 µM in assay [1] (setting [7]) turned out to be 2.8%. For the same compound, the IC50 in assay [2] (setting [8]) and in assay [3] (setting [9]) was > 3 µM each time.

Consider `O=C(Nc1ccc2c(O)c(N=Nc3ccc([N+](=O)[O-])cc3)c(S(=O)(=O)O)cc2c1)Nc1ccc2c(O)c(N=Nc3ccc([N+](=O)[O-])cc3)c(S(=O)(=O)O)cc2c1` [Compound 46], for which, in assay [1] (setting [7]), the remaining activity at 10 µM amounted to 4.6%. The IC50 in assay [2] (setting [8]) and in assay [3] (setting [9]) was > 3 µM each time.

In the case of `COC(=O)c1ccc(N=Nc2c(S(=O)(=O)O)cc3cc(NC(=O)Nc4ccc5c(O)c(N=Nc6ccc(C(=O)OC)cc6I)c(S(=O)(=O)O)cc5c4)ccc3c2O)c(I)c1` [Compound 47], in assay [1] (setting [7]), the remaining activity at 10 µM worked out at 2%. Also, the IC50 in assay [2] (setting [5]) and in assay [3] (setting [6]) was > 3 µM throughout.

Consider `O=C(Nc1ccc2c(O)c(N=Nc3cccc4c(=O)[nH][nH]c(=O)c34)c(S(=O)(=O)O)cc2c1)Nc1ccc2c(O)c(N=Nc3cccc4c(=O)[nH][nH]c(=O)c34)c(S(=O)(=O)O)cc2c1` [Compound 49], for which the remaining activity at 10 µM in assay [1] (setting [7]) was determined as 1%. Also, the IC50 in assay [2] (setting [5]) was found to be 2 µM; in assay [3] (setting [6]) it was 1 µM.

As for `COc1cc(C(=O)O)c(N=Nc2c(S(=O)(=O)O)cc3cc(NC(=O)Nc4ccc5c(O)c(N=Nc6c(C(=O)O)cc(OC)c(OC)c6OC)c(S(=O)(=O)O)cc5c4)ccc3c2O)c(OC)c1OC` [Compound 50], the remaining activity at 10 µM in assay [1] (setting [7]) was 1.3%. The IC50 in assay [2] (setting [5]) and in assay [3] (setting [6]) was 2 µM each time.

In the case of `O=C(Nc1ccc2c(O)c(N=Nc3cc(C(=O)O)cc(C(=O)O)c3)c(S(=O)(=O)O)cc2c1)Nc1ccc2c(O)c(N=Nc3cc(C(=O)O)cc(C(=O)O)c3)c(S(=O)(=O)O)cc2c1` [Compound 51], the remaining activity at 10 µM in assay [1] (setting [7]) worked out at 1.1%. Also, the IC50 in assay [2] (setting [5]) was 0.5 µM; in assay [3] (setting [6]) it was 0.9 µM.

Regarding `O=C(Nc1ccc2c(O)c(N=Nc3c(Cl)cc(C(=O)O)cc3Cl)c(S(=O)(=O)O)cc2c1)Nc1ccc2c(O)c(N=Nc3c(Cl)cc(C(=O)O)cc3Cl)c(S(=O)(=O)O)cc2c1` [Compound 52], the remaining activity at 10 µM in assay [1] (setting [7]) came to 1.3%. The IC50 stood at 0.2 µM in assay [2] (setting [5]) and 0.5 µM in assay [3] (setting [6]).

Turning to `Cc1ccc(CO)cc1N=Nc1c(S(=O)(=O)O)cc2cc(NC(=O)Nc3ccc4c(O)c(N=Nc5cc(CO)ccc5C)c(S(=O)(=O)O)cc4c3)ccc2c1O` [Compound 55], the remaining activity at 10 µM in assay [1] (setting [7]) came to 24%. Further, the IC50 in assay [2] (setting [5]) and in assay [3] (setting [6]) was > 3 µM throughout.

Regarding `COC(=O)/C=C/c1ccc(N=Nc2c(S(=O)(=O)O)cc3cc(NC(=O)Nc4ccc5c(O)c(N=Nc6ccc(/C=C/C(=O)OC)cc6)c(S(=O)(=O)O)cc5c4)ccc3c2O)cc1` [Compound 56], the remaining activity at 10 µM in assay [1] (setting [7]) was 27%. Also, the 50% inhibitory concentration (IC50) in assay [2] (setting [5]) and in assay [3] (setting [6]) was > 3 µM in each case.

Regarding `O=C(Nc1ccc2c(O)c(N=Nc3ccc4oc(=O)ccc4c3)c(S(=O)(=O)O)cc2c1)Nc1ccc2c(O)c(N=Nc3ccc4oc(=O)ccc4c3)c(S(=O)(=O)O)cc2c1` [Compound 59], the remaining activity at 10 µM in assay [1] (setting [7]) amounted to 2%. Further, the IC50 was determined as 2 µM in assay [2] (setting [5]) and 1 µM in assay [3] (setting [6]).

In the case of `COc1cc(N=Nc2c(S(=O)(=O)O)cc3cc(NC(=O)Nc4ccc5c(O)c(N=Nc6cc(OC)c(OC)cc6C(=O)O)c(S(=O)(=O)O)cc5c4)ccc3c2O)c(C(=O)O)cc1OC` [Compound 60], the remaining activity at 10 µM in assay [1] (setting [7]) amounted to 6%. Moreover, the IC50 worked out at 0.8 µM in assay [2] (setting [5]) and 2 µM in assay [3] (setting [6]).

For the compound `O=C(Nc1ccc2c(O)c(N=Nc3ccc(CP(=O)(O)O)cc3)c(S(=O)(=O)O)cc2c1)Nc1ccc2c(O)c(N=Nc3ccc(CP(=O)(O)O)cc3)c(S(=O)(=O)O)cc2c1` [Compound 61], in assay [1], the remaining activity at 10 µM was 53%. The IC50 in assay [2] (setting [5]) and in assay [3] (setting [6]) was > 3 µM each time.

`O=C(O)/C=C/c1ccc(N=Nc2c(S(=O)(=O)O)cc3cc(NC(=O)C(=O)Nc4ccc5c(O)c(N=Nc6ccc(/C=C/C(=O)O)cc6)c(S(=O)(=O)O)cc5c4)ccc3c2O)cc1` [Compound 91]: in assay [4], the “conclusion of cell-based anti-HIV (XTT) assays and reverse transcriptase (RT) assays” value was “active or moderately active”.

As for `COc1ccc(C(=O)O)c(N=Nc2c(S(=O)(=O)O)cc3cc(NC(=O)C(=O)Nc4ccc5c(O)c(N=Nc6c(C(=O)O)ccc(OC)c6OC)c(S(=O)(=O)O)cc5c4)ccc3c2O)c1OC` [Compound 101], the IC50 turned out to be 0.5 µM in assay [2] (setting [5]) and 2 µM in assay [3] (setting [6]).

As to `COc1cc(C(=O)O)c(N=Nc2c(S(=O)(=O)O)cc3cc(NC(=O)C(=O)Nc4ccc5c(O)c(N=Nc6c(C(=O)O)cc(OC)c(OC)c6OC)c(S(=O)(=O)O)cc5c4)ccc3c2O)c(OC)c1OC` [Compound 102], the IC50 was found to be 0.6 µM in assay [2] (setting [5]) and 0.7 µM in assay [3] (setting [6]).

Consider `O=C(Nc1ccc2c(O)c(N=Nc3cc(C(=O)O)ccc3C(=O)O)c(S(=O)(=O)O)cc2c1)C(=O)Nc1ccc2c(O)c(N=Nc3cc(C(=O)O)ccc3C(=O)O)c(S(=O)(=O)O)cc2c1` [Compound 104], for which the IC50 came out at 0.6 µM in assay [2] (setting [5]) and 0.4 µM in assay [3] (setting [6]).

`O=C(Nc1ccc2c(O)c(N=Nc3ccccc3)c(S(=O)(=O)O)cc2c1)C(=O)Nc1ccc2c(O)c(N=Nc3ccccc3)c(S(=O)(=O)O)cc2c1` [Compound 106]: the values for the IC50 in assay [2] (setting [5]) and in assay [3] (setting [6]) were 1.5 µM and 0.4 µM, respectively.

As for `O=C(O)CCC(NC(=O)c1ccc(N=Nc2c(S(=O)(=O)O)cc3cc(NC(=O)C(=O)Nc4ccc5c(O)c(N=Nc6ccc(C(=O)NC(CCC(=O)O)C(=O)O)cc6)c(S(=O)(=O)O)cc5c4)ccc3c2O)cc1)C(=O)O` (centres unmarked) [Compound 107], the IC50 in assay [2] (setting [5]) turned out to be 0.7 µM; in assay [3] (setting [6]), 0.5 µM.

Turning to `CC(=O)Nc1ccc(N=Nc2c(S(=O)(=O)O)cc3cc(NC(=O)C(=O)Nc4ccc5c(O)c(N=Nc6ccc(NC(C)=O)cc6)c(S(=O)(=O)O)cc5c4)ccc3c2O)cc1` [Compound 108], the values for the IC50 in assay [2] (setting [5]) and in assay [3] (setting [6]) were 1 µM and 0.7 µM, respectively.

`COc1cc(N=Nc2c(S(=O)(=O)O)cc3cc(NC(=O)C(=O)Nc4ccc5c(O)c(N=Nc6cc(OC)c(OC)c(OC)c6)c(S(=O)(=O)O)cc5c4)ccc3c2O)cc(OC)c1OC` [Compound 110]: the half-inhibitory concentration (IC50) in assay [2] (setting [5]) turned out to be 1.1 µM; in assay [3] (setting [6]), 0.4 µM.

As to `Cc1cc2nc(N=Nc3c(S(=O)(=O)O)cc4cc(NC(=O)C(=O)Nc5ccc6c(O)c(N=Nc7nc8cc(C)c(C)cc8[nH]7)c(S(=O)(=O)O)cc6c5)ccc4c3O)[nH]c2cc1C` [Compound 114], the IC50 in assay [2] (setting [5]) stood at 1 µM; in assay [3] (setting [6]), 0.3 µM.
